Bounds are passed on as bounds.

Broadly, the melting point is the temperature, or range, at which the solid turns liquid.

In turn, `O=[N+]([O-])c1cccc(S(=O)(=O)NCC2CC2)c1` came in with a melting point of 91 °C.

The compound `O=C1C2CC=CCN2C(=O)N1c1cc(O)c(Cl)cc1F` (stereo not drawn) had a melting point of 195 to 197 °C.

`Cc1ccc(C(=O)c2c(Br)cc(CC(=O)O)n2C)cc1`: the melting point was 155 to 157 °C.

`CC1=C([N+](=O)[O-])C(c2ccccc2C(F)(F)F)c2c[nH]nc2N1` (stereo not drawn) displayed a melting point of 257 to 258 °C.

As to `CCCc1nn(-c2ccc(C(F)(F)F)cn2)cc1CCCOc1ccc(CC(=O)O)cc1`, the melting point was in the range of 101 to 102 °C.

`COC(=O)N(C(=O)CC(O)(Cn1cncn1)c1ccc(Cl)cc1Cl)C(=O)OC` (stereo not drawn) had a melting point of 155 to 156 °C.

`O=C1CCC(c2ccccc2F)=NN1` came in with a melting point of 119 to 121 °C.

`CCOC(=O)/C(C)=C(/C)c1cccc(OCc2nc(-c3ccc(C(F)(F)F)cc3)oc2C)c1` gave a melting point of 115 to 116 °C.

Compound `O=C(NCc1ccc(Cl)cc1)c1ccc2cccnc2c1O` registered a melting point of 162 to 165 °C.

On to `CCOc1ccc(C2(C(=O)O)CCC2)cc1`, for which the melting point lay within 90 to 91 °C.

`Cc1cccc(-c2n[nH]cc2-c2ccc(F)c(-c3ccc(S(=O)(=O)C(F)(F)F)cc3)c2)n1`: the melting point lay within 81 to 84 °C.

In turn, `CCOC(=O)/C=C/c1ccc(Cl)c(Cl)n1` showed a melting point of 102 to 103 °C.

Compound `O=C(Nc1ccc(F)c(CO)c1)c1ccccn1` gave a melting point of 99 to 122 °C.

`COc1ccc(NC(=S)N2CCc3cc(S(=O)(=O)N4CC(c5ccccc5)NC4=O)ccc32)cc1` (stereo not drawn) returned a melting point of 181 to 183 °C.

`CC(C)(Sc1ccccc1)C(=O)O` returned a melting point of 62 to 64 °C.

Regarding `COc1nc(C(F)(F)F)cc(=O)n1-c1cc(OC(C)C)c(Br)cc1F`, the melting point was 137 °C.

In turn, `Cc1ccc2c3c(ccc2n1)OC[C@H](CN1CCN(c2cccc(C)c2C)CC1)O3` came in with a melting point of 112 to 113 °C.

`CNC(=O)N1CCN(C(=O)Cc2ccc(Cl)c(Cl)c2)C(CN2CCC(O)C2)C1` (stereo not drawn) yielded a melting point of 57 °C.

Regarding `CC(C)[C@H]1CC[C@H](Nc2ncc(Cc3ccc(O)nc3)c3ncccc23)CC1`, the melting point was in the range of 232 to 235 °C.

Compound `Cc1cc(-c2nnn(C)n2)cc(C)c1OCCCCc1cc2cccnc2[nH]1` registered a melting point of 147 to 150 °C.

As for `Cc1c(C)c(C=O)c2c(c1C)CC(C)(C)O2`, the melting point was in the range of 87 to 88 °C.

In turn, `COc1cc2c(cc1O)C(Cc1c(OC)cccc1[N+](=O)[O-])N(C)CC2` (stereo not drawn) yielded a melting point of 163 to 165 °C.

For `Cc1cc(C(N)=O)c(NC(=O)CCC(F)(F)F)s1`, the melting point is 151 to 153 °C.

Consider `COc1cccc(-c2nc(-c3ccccc3)c3ncc(-c4cccc5ccccc45)cc3n2)c1`, for which the melting point was in the range of 166 to 167 °C.

Regarding `CC(C)(C)[Si](C)(C)Oc1cccc2[nH]ccc12`, the melting point lay in the range of 80 to 81 °C.

Take `COC(=O)/C=C/c1ccc(CC(C)NCC(O)c2cccc(C(F)(F)F)c2)cc1` (stereo not drawn): the melting point was 80 to 83 °C.

With `COc1cccc(-c2nc3n(n2)CCc2ccccc2-3)c1`, the melting point fell in the range of 94 to 96 °C.

`O=S(=O)(c1ccc2ccccc2c1)N1CCCC1c1ccc(F)cc1` (racemic) displayed a melting point of 166 °C.

On to `Cc1ccc(C)c(OCCCC(C)(C)C(=O)Nc2cccc(-c3nnc(C)o3)c2)c1`, for which the melting point was in the range of 90 to 92 °C.

`CN1CC[C@@H](c2cc(Cl)ccc2O)[C@@H]1c1ccccc1I` (relative stereo) yielded a melting point of 123 °C.

`O=C(O)C1Oc2cc3onc(-c4ccccc4)c3c(Cl)c2O1` (stereo not drawn) had a melting point of 102 °C.

Compound `Clc1ccc(I)cc1CBr` came in with a melting point of 94 to 95 °C.

For the compound `Nc1cc(CCC(=O)CCc2ccc(O)c(N)c2)ccc1O`, the melting point lay within 131 to 133 °C.

`CN(C)c1cc(CO)ncc1F` displayed a melting point of 80 to 82 °C.

For the compound `C[C@H]1CCCC(C)(C)[C@@H]1C(=O)c1ccc(C(F)(F)F)cc1`, the melting point was in the range of 16 to 20 °C.

Consider `CN1C(=O)c2c(Oc3ccccc3OS(=O)(=O)C(F)(F)F)cc3c(c2C1=O)c1ccc(OCc2ccccc2)cc1n3C(=O)OC(C)(C)C`, for which the melting point was found to be 186 °C.

The compound `CCCCOCCOc1ccc(-c2ccc3c(c2)C=C(C(=O)Nc2ccc(S(=O)Cc4nccn4CC(=O)O)cc2)CCN3CC(C)C)cc1` (stereo not drawn) registered a melting point of 146 to 148 °C.

`O=C(O)c1cccc(-c2cc(-c3ccccc3)on2)c1` gave a melting point of 250 to 251 °C.

With `Cc1cc(-n2ccnc2)c2cccc(OCc3c(Cl)ccc(S(=O)(=O)N4CCC[C@H]4C(=O)N(C)CCCN(C)CCCO)c3Cl)c2n1`, the melting point was found to be 92 °C.

Turning to `C=CCn1c(-c2cccc(Cl)c2[N+](=O)[O-])nc2ccccc21`, the melting point lay in the range of 148 to 150 °C.

The compound `Cc1nc(N)c2nc(C)n(CCCCCSc3ccccc3)c2c1C` yielded a melting point of 181 to 183 °C.

With `Cc1cccc(N2C(=O)CC(Cl)C2=O)c1` (stereo not drawn), the melting point lay within 137 to 138 °C.

With `C[C@@H](NC(=O)OC(C)(C)C)c1nc2c(Cl)cccc2s1`, the melting point lay within 95 to 96 °C.

Consider `N#Cc1ccc2c(c1)c(-c1ccccc1)nn2CCCBr`, for which the melting point was in the range of 100 to 102 °C.

With `CC12CC(O)C3(F)C(CCC4=CC(=O)C=CC43C)C1CCC2S` (stereo not drawn), the melting point was in the range of 295 to 297 °C.

In turn, `CN(Cc1cc(C(C)(C)C)c(O)c(C(C)(C)C)c1)n1ccnc1` yielded a melting point of 139 °C.

Turning to `Cc1cc2nncn2nc1-c1ccc(C(N)=S)cc1`, the melting point was in the range of 268 to 272 °C.

In turn, `Cc1cc(-c2nc3cccnn3c2-c2ccnc(NC(=O)c3cnccn3)c2)ccc1F` had a melting point of 229 to 230 °C.

The compound `COc1cc(N)c(Cl)cc1C(=O)NCC1CCN(CCCCC(=O)c2cn(C)c3ccccc23)CC1` yielded a melting point of 87 to 89 °C.

`O=C(O)CNS(=O)(=O)c1cc2ccc(Cl)cc2cc1Cl` yielded a melting point of 185 to 188 °C.

`CC(C)Oc1ncc(C#N)c(O)n1`: the melting point came out at 166 °C.

In turn, `N[C@H](C1CCCCC1)C(O)(c1ccccc1)c1ccccc1` showed a melting point of 181 to 182 °C.

Regarding `CCC(CC)N1C(=O)CCc2c(C)nc(Nc3ccc(C(C)C)cc3Br)nc21`, the melting point fell in the range of 124 to 126 °C.

Consider `O=C(CCc1cc2cccnc2n(-c2cccc([N+](=O)[O-])c2)c1=O)c1ccncc1`, for which the melting point was 200 to 202 °C.

As to `Cn1c(=O)oc2cc3c(cc21)OCC31C(=O)Nc2ccccc21` (stereo not drawn), the melting point was more than 250 °C.

For the compound `CCCCN(CCCC)CCCOc1ccc(S(=O)(=O)c2cn[nH]c2C(C)C)cc1`, the melting point came out at 53 °C.

In turn, `NCC1CCCN(c2c(F)cc3c(=O)c(C(=O)O)cn(C4CC4)c3c2F)C1` (stereo not drawn) came in with a melting point of 242 to 243 °C.

As to `CC(C(=O)O)c1ccc2c(c1)Sc1ncccc1CC2` (stereo not drawn), the melting point was in the range of 161 to 162 °C.

`Cc1cccc2c(=O)nc(-c3cccc(C(=O)NCCCCCCNC(=O)OC(C)(C)C)n3)sc12` yielded a melting point of 171 to 172 °C.

Turning to `Cn1nc(-c2ccccc2)nc1-c1ccccc1CBr`, the melting point was in the range of 83 to 85 °C.

As for `C#Cc1ccc(OC)c(OCC)c1`, the melting point lay within 95 to 96 °C.

`COC(=O)COc1ccc(C(=O)C(C)(C)Br)cc1`: the melting point is 46 to 50 °C.

With `CC(CN(C)C)CC(CNC(=O)N(CCCl)N=O)(c1ccccc1)c1ccccc1` (stereo not drawn), the melting point was in the range of 105 to 107 °C.

The compound `COc1cc2c(c3c1OC(C)(C)C3)C(c1cccc(-c3ccc(NC(C)=O)nc3)c1)=NC(C)(C)C2` returned a melting point of 208 to 209 °C.

In turn, `CC(=O)OC1CCN(C2c3cc4nonc4cc3OC(C)(C)C2O)C(=O)C1` (stereo not drawn) had a melting point of 204 to 206 °C.

In turn, `COC(=O)c1ccc(NC(=O)c2cc(C(C)C)c(C(C)C)o2)cc1Cl` had a melting point of 123 to 124 °C.

`O=c1[nH][nH]c(C(F)(F)F)c1Cc1ccc(Br)cc1` yielded a melting point of 135 to 136 °C.

Turning to `CC(O)c1ccc(CNC(=O)c2cccnc2Oc2cccnc2)s1` (stereo not drawn), the melting point fell in the range of 92 to 94 °C.

`COc1ccc(-c2n[nH]c3c2c(=O)n(-c2ccccc2)c2ncccc32)cc1` displayed a melting point of more than 300 °C.

On to `CCOC(=O)c1cc(OCc2ccccc2)c2nc(C3CC3)n(C)c2c1`, for which the melting point was found to be 120 °C.

With `COC(=O)CCCNS(=O)(=O)c1cccc2c([N+](=O)[O-])cccc12`, the melting point was 102 to 104 °C.

Turning to `CC(=O)c1ccc(C(C)Oc2cccc(C(=O)Nc3ccc(C#N)cc3)c2)cc1` (stereo not drawn), the melting point lay in the range of 79 to 81 °C.

Consider `CC(C)(C)OC(=O)N1CCn2c(c(C(N)=O)c(C#N)c2C2CCN(C(=O)OCc3ccccc3)CC2)C1`, for which the melting point stood at 90 °C.

`COc1ccc(CCCC(=O)CCC(=O)O)cc1` yielded a melting point of 88 to 89 °C.

`CCCc1nc2c(N)nc3cc(OCCOCCNS(C)(=O)=O)ccc3c2s1`: the melting point fell in the range of 134 to 137 °C.

As to `COc1cc(N)cc(C#N)c1`, the melting point fell in the range of 81 to 85 °C.

`O=C1SC[C@H]2[C@@H]1N(Cc1ccccc1)C(=O)N2Cc1ccccc1` (relative stereo) came in with a melting point of 118 to 119 °C.

As for `CCN(CC)c1ccc(C2(N(c3ccccc3)c3ccc(N(C)C)cc3)OC(=O)c3ccccc32)c(C)c1` (stereo not drawn), the melting point was in the range of 154 to 156 °C.

`CC(C)c1ccc(C(=O)CCl)cc1S(N)(=O)=O`: the melting point worked out at 141 °C.

For the compound `CCCCCCCCCC(O)Cc1ccc(O)c(O)c1` (stereo not drawn), the melting point was in the range of 56 to 58 °C.

`O=C(O)c1cn2c3c(c(Cl)cc(Cl)c3c1=O)CCC2`: the melting point fell in the range of 300 to 304 °C.

`CCCn1nc2c(N)nc3ccccc3c2c1CCN(CC)C(N)=O` came in with a melting point of 206 to 207 °C.

`CCCC12CCC(=O)C=C1c1c(cc(CC(=O)O)c(Cl)c1Cl)C2` (stereo not drawn) yielded a melting point of 206 to 208 °C.

Turning to `Cc1c(C)c2c(c(C)c1O)CCC(C)(COc1ccc(CC(Cl)C(=O)O)cc1)O2` (stereo not drawn), the melting point was 148 to 149 °C.

Compound `O=C(O)Cc1c(C(=O)O)c2cc(Oc3ccc(C(F)(F)F)cc3)ccc2n1-c1cccc(Cl)c1` returned a melting point of 236 to 238 °C.

In the case of `Cc1ccc2oc(=O)c(C(=O)Oc3cccc4cnccc34)cc2c1`, the melting point was 188 to 190 °C.

Take `COc1cc2c(cc1Nc1ncc(Cl)c(Nc3cc(C(N)=O)ccc3OC)n1)CCN(CC(=O)N(C)C)CC2`: the melting point lay in the range of 163 to 174 °C.

Turning to `C=CCOc1ccccc1NC=C1C(=O)N(c2ccc(C(=O)O)cc2)N=C1C`, the melting point was 240 °C.

(Values after a melting point compilation (Tetko et al.; mined from patent text by program, amines drawn as free bases though some values may be those of a salt).)
